Series [1] addresses PSMA protein (Homo sapiens (Human), UniProt Q04609). The series can be described thus: In vitro binding test of compound and PSMA protein (Biacore). The note with it: Biacore 8K, 15° C., 1:1 binding model, KD in M. The method, then:
A Biacore 8K (Cytiva) instrument was used to determine the binding affinity of disclosed compounds to the PSMA protein (Sinobiological). The PSMA protein was captured on SA chips. Before immobilizing the disclosed compounds (flow path 1 and 2, flow rate 10 μL/min), the PSMA protein was immobilized on flow path 2 by using flow buffer (10 μg/ml, flow rate 5 μL/min, injection time 600 s), and 1M NaCl was injected three times consecutively into 50 mM NaOH to condition the sensor surface. After each disclosed compounds injection, isopropanol in 1M NaCl and 50 mM NaOH was used for additional washing (flow path 1, 2, flow rate 10 μL/min, injection time 60 s).
All compounds were dissolved in 100% DMSO and diluted to 10 mM, and then diluted in test buffer (PBS, pH 7.4, 1 mM TCEP ([…]), 0.05% P20, 2% dimethyl sulfoxide) at an appropriate highest concentration. Analytes were run using the following conditions: 15° C. analysis temperature, analysis steps=all set to LMW kinetics; cycle type=single cycle (90 s contact time, 1800 s separation time, 30 ul/min flow rate, channels 1, 2); channel detection=2-1). Data were evaluated using Biacore Insight evaluation software, and data were fit to a 1:1 binding model.
Biacore results are shown in Table 12: pKD=−Log KD, where KD is the binding affinity of the compounds to PSMA protein measured by Biacore. KD is expressed by KD (M)=Kd (1/s)/Ka (1/Ms).
On the technique in general: In SPR one partner is held on a chip, and binding of the other changes the refractive index at the surface.

Series [2] relates to plasma protein. The series is described as follows: Determination of plasma protein binding (PPB). In kind it is in vitro ADME. The conditions noted are these: ^177Lu-labeled, 37° C., 10 min, ultrafiltration, FIG. 6. The method, then:
Three EP tubes were taken, and 0.2 mL of plasma and 50 μL of ^177Lu-labeled compound were added to each tube. The mixture was incubated in a thermostat at 37° C. for 10 min, and then taken out and added to ultrafiltration tubes, respectively. The ultrafiltration tubes were centrifuged at 13,000 rpm for 45 min. 50 μL of normal saline was then added, and the mixture was centrifuged for another 15 minutes. The radioactive counts per minute of each tube casing and filtrate were then measured. PPB was calculated, and the mean of 3 tubes was recorded. PPB=[(supernatant counts-background counts)]/(subnatant counts+supernatant counts−2*background counts)]*100.

In series [3] the test system is 22rv1 xenograft tumor. The series can be described thus: Pharmacodynamic study in 22rv1 mouse xenograft tumor model (effect example 11). The note with it: for TGITV (relative tumor inhibition rate): Day 19; for Tumor volume, Administration in groups Day 19: mean ± standard error. The format is in vivo, mice.
Series [4] relates to PSMA-positive (22RV1) tumor. The series is described as follows: Specificity test, PET/CT in PSMA-positive (22RV1) tumor-bearing mice with and without PMPA. In kind it is in vivo. The conditions noted are these: ^68Ga-E3 co-injected with PMPA (2 mg/Kg), FIG. 4. The protocol:
The ^68Ga-E3 radiolabeled compound was injected into the tail vein of PSMA-positive (22RV1) tumor-bearing mice (Jiangsu Huajing Molecular Imaging and Drug Research Institute Co., Ltd.) (about 7.4 MBq/mouse, specific activity: 22423.82 KBq/μg) ([…]). After administration, PET/CT was used for 1 h dynamic scanning, medium resolution whole body CT, and 10 min static scanning at 2 h and 3 h. It can be clearly seen from FIG. 3 that the drug is rapidly distributed into the animal body after administration, and the drug is rapidly metabolized by the kidneys and excreted from the body over time.
The next day, the mixture of ^68Ga-E3 and PSMA standard PMPA (2 mg/Kg) was injected into the tail vein of PSMA-positive tumor-bearing mice (about 7.4 MBq/mouse, specific activity: 22423.82 KBq/μg) (50 uCi). After administration, PET/CT was used for 1 h dynamic scanning, medium resolution whole body CT, and 10 min static scanning at 2 h and 3 h. The results are depicted in detailed in FIG. 4.
PMPA is a specific inhibitor of PSMA. When PMPA is administered together with ^68Ga-E3, ^68Ga-E3 and PMPA are rapidly distributed to various organs in the animal body. However, PMPA occupies the PSMA target on the tumor, thus preventing the binding of ^68Ga-E3 to PSMA on the tumor.

For series [5], the system named is LNCAP cells. The series is described as follows: Cell binding test on LNCAP cells. The format is cell-based. The conditions noted are these: ^177Lu-labeled, on ice 2 hours, FIG. 1. The protocol:
LNCAP cells in the logarithmic growth phase (Obio Technology (Shanghai) Corp., Ltd.) were made into a cell suspension. The cell suspension was adjusted to a cell density of 2×10^5/ml and inoculated 1 mL into a 24-well cell culture plate. Cells were incubated in an incubator at 37° C. for 48 hours. Three hours before the test, the medium was replaced with serum-free RPMI1640 medium (NEWZERUM), the cell culture medium was aspirated, and the cells were washed once with PBS. Serum-free RPMI1640 medium was used to prepare ^177Lu-E series compounds at concentrations of 32, 16, 8, 4, 1, 0.5, 0.1, 0.02, 0.01, 0.002 uCi/mL. The original medium was discarded, and then 1 mL of the prepared solution containing ^177Lu-E series compounds was added to each well. The plate was placed on ice for 2 hours, and then the cells were washed three times with 0.5 mL of ice-cold PBS. The washing solution was aspirated, and the cells were lysed with 0.5 mL of 1M NaOH and washed twice with 0.5 mL of PBS, and the sodium hydroxide (0.5 mL) and PBS (0.5 mL×2) solutions were collected. The uptake counts were determined.

Series [6] in a line: Determination of Log P (n-octanol/water). In kind it is physicochemical. The conditions noted are these: room temperature, FIG. 5. The protocol:
Three EP tubes were taken, and 0.5 mL of saturated n-octanol and 480 μL of ultrapure water were added into each EP tube. 20 μL (about 1 MBq) solution of E series compounds and reference compound were then added respectively. The mixture was shaken evenly and then centrifuged at room temperature (2000 r/min, 5 min, centrifugal radius: 10 cm). 100 μL was taken from the lipid layer and aqueous layer of each tube, and the radioactive counts per minute of the two phases were measured. The Log P value was calculated and the results were averaged.

[7] abbreviates: 300 μCi of ^177Lu-labeled test sample.
[8] abbreviates: 600 μCi of ^177Lu-labeled test sample.

Structures are written as SMILES.

Sequence of PSMA protein (Q04609 whole entry): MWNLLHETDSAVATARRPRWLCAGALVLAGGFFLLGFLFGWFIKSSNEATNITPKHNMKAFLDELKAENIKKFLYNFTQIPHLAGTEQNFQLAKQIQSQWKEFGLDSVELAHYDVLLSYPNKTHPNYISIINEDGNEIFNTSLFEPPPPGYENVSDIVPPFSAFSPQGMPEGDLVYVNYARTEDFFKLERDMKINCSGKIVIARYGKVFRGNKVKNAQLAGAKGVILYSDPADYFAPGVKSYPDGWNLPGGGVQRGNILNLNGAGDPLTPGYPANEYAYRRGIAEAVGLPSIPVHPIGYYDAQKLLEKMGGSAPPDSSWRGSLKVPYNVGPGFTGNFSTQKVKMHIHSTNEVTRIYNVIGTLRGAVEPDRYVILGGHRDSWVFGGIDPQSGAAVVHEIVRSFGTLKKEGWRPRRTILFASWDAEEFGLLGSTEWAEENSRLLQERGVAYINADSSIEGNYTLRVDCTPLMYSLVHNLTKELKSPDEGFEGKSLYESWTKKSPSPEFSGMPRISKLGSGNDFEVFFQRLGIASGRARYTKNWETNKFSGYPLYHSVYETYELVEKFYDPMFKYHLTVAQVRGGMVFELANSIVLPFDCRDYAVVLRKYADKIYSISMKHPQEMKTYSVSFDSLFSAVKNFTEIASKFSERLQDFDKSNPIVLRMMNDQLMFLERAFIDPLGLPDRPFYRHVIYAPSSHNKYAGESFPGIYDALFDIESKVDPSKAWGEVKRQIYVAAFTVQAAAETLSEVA

Turning to `O=C(O)CC[C@H](NC(=O)NC(CCCCNC(=O)[C@H](Cc1ccc2ccccc2c1)NC(=O)c1ccc2c(c1)CCN(C(=O)CN1CCN(CC(=O)O)CCN(CC(=O)O)CCN(CC(=O)O)CC1)C2)C(=O)O)C(=O)O` (stereo partly shown) [Compound E3], the “pkD (pKD=−Log KD, binding affinity to PSMA protein)” value in series [1] is 9.26. Besides, in series [2], the PPB binding rate entry is listed as “extremely high”. In addition, in series [3] (setting [7]), the “TGITV (relative tumor inhibition rate)” value amounted to 71.00% and the “Tumor volume, Administration in groups Day 19” value was determined as 590.66 ± 103.97 mm^3. For the same compound, in series [3] (setting [8]), the “TGITV (relative tumor inhibition rate)” value is 80.42% and the “Tumor volume, Administration in groups Day 19” value came out at 447.12 ± 47.84 mm^3. In series [4], the “specificity against PSMA” value was “high specificity”.

As to `O=C(O)CC[C@H](NC(=O)N[C@@H](CCCCNC(=O)[C@H](Cc1ccc2ccccc2c1)NC(=O)C1CCC(NC(=O)CN2CCN(CC(=O)O)CCN(CC(=O)O)CCN(CC(=O)O)CC2)CC1)C(=O)O)C(=O)O` (stereo partly shown) [Compound E26], in series [1], the “pkD (pKD=−Log KD, binding affinity to PSMA protein)” value is recorded as 9.44. Besides, in series [5], the cell binding ability result is on record as “excellent cell binding ability”. Besides, the “lipophilicity (Log P) compared with the reference compound PSMA-617” value in series [6] is recorded as “better lipophilicity”.

Values taken from US20240366813A1, “PEPTIDE-UREA DERIVATIVE, PHARMACEUTICAL COMPOSITION CONTAINING SAME AND APPLICATION THEREOF” (Bivision Pharmaceuticals, Inc., priority 0001, published 2024).
